Consider 2 molecules from US10493170B1, “Targeted graphene quantum dot-based theranostics” (University of South Florida, priority 2014, dated 2019).

What is called IC50 is the midpoint of a concentration-inhibition curve.

Format in all cases: cell-based
The test system of experiment [1] is ovarian cancer cells ovcar3. As to the kind of experiment: Colony formation assay, ovcar3. On the procedure:
Colony formation assays were performed with ovarian cancer cells ovcar3 and ovarian surface epithelial cells T80 to examine the impact of DOX, […]-Dox, or GQDs-Dox on the cell growth inhibition.

The next experiment relates to ovarian cells Ovcar3. The experiment can be described thus: MTT cell viability assay, Ovcar3. As to conditions: Homo sapiens, OVCAR-3; Ovcar3, 24 h, concentration equivalent to Dox; read-out: IC50 (relative cellular viability). The method, then: (§1) Cells were treated with various concentrations of GQDs-FA-Dox (0, 0.25, 0.5, 1, 2, and 4 μM equivalent to Dox) for 24 h and 48 h, respectively. Cell viability was determined by the MTT assay. In brief, the cells were treated with GQDs-FA-Dox conjugates, 10 μL MTT (5 mg/ml) was added into each well and incubated for 4 h, culture medium was removed and 100 μL DMSO was added to dissolve formazan crystals. Absorbance was read at 560 nm for formazan and 670 nm for background by Synergy H4 hybrid multi-mode microplate reader (BioTek).
(§2) To determine the effective dosage of GQDs-FA-Dox on ovarian cancer cells and normal cells, a dose-course MTT assay was done on Ovcar3 cells. The cells were treated with a series of concentration of DOX, GQDs-FA-Dox, and GQDs-Dox for 0.01 to 4 μM (equivalent to Dox concentration) for 24 h.
(In general: Tetrazolium assays rely on reduction of a dye to a coloured formazan, in cell work by metabolically active cells.)

Experiment [2] relates to normal ovary epithelial cells T80. As to the kind of experiment: MTT cell viability assay, T80. The settings on record: T80, 24 h, concentration equivalent to Dox, read-out: IC50 (relative cellular viability). The method, then:
as §1, §2

As to `Nc1nc2ncc(CNc3ccc(C(=O)N[C@@H](CCC(=O)O)C(=O)O)cc3)nc2c(=O)[nH]1` [Folic acid, folic acid], the “effect of folic acid on ovcar3 cells in response of GQDs-FA-DOX” value in experiment [1] (ovcar3, colony formation, co-treatment with GQDs-FA-DOX) is on record as “protective effect”.
On to `COc1cccc2c1C(=O)c1c(O)c3c(c(O)c1C2=O)C[C@@](O)(C(=O)CO)C[C@@H]3O[C@H]1C[C@H](N)[C@H](O)[C@H](C)O1` [DOX, Doxorubicin], for which, in experiment [1] (ovcar3), the colony growth result was “strongly inhibited”. The IC50 stood at 930 nM with ovarian cells Ovcar3 and 860 nM in experiment [2].
